# Results reported in patent publication US20070093969A1, “Molecular nephrotoxicology modeling” (priority 2002, published 2007).
# Assays:
# [1] = tested on: patients; settings: human, in vivo; cited from earlier work
# [2] = tested on: kidney; settings: rat; cited from earlier work
# [3] = tested on: rats; settings: rat, in vivo; cited from earlier work
# [4] = tested on: rats; settings: rat, in vivo; cited from earlier work; remark: listed apart in the source
# [5] = tested on: glomerular epithelial cell; settings: rat, in vivo; cited from earlier work
# [6] = tested on: rats; settings: rat, in vivo; cited from earlier work; remark: listed apart in the source
# [7] = tested on: rats; settings: rat, in vivo; cited from earlier work; remark: listed apart in the source
# [8] = tested on: mitochondrial respiration; settings: cited from earlier work
# [9] = tested on: renal cortex; settings: cited from earlier work
# [10] = tested on: patients; settings: human, in vivo; cited from earlier work; remark: listed apart in the source
# [11] = tested on: proximal renal tubule; settings: rat, in vivo; cited from earlier work
# [12] = tested on: rats; settings: rat, in vivo; cited from earlier work; remark: listed apart in the source
# [13] = tested on: rats; settings: rat, in vivo; cited from earlier work; remark: listed apart in the source
# [14] = tested on: rabbits; settings: rabbit, in vivo; cited from earlier work
# [15] = tested on: rabbits; settings: rabbit, in vivo; cited from earlier work; remark: listed apart in the source
# [16] = tested on: kidney tissue gene expression; settings: rat, in vivo
# [17] = tested on: kidney tissue; settings: in vivo; cited from earlier work
# [18] = Clinical pathology (clinical chemistry) of dosed rats; type: in vivo, male Sprague-Dawley rats; settings: rats given the high dosage of diflunisal
# Protocol: In both the ibuprofen and the diflunisal group, two patients complained of abdominal cramping.
# 1. Frequency—Prior to necropsy.
# 2. Number of animals—All surviving animals.
# 3. Bleeding Procedure—Blood was obtained by puncture of the orbital sinus while under 70% CO2/30% O2 anesthesia.
# Collection of Blood Samples—Approximately 0.5 mL of blood was collected into EDTA tubes for evaluation of hematology parameters. Approximately 1 mL of blood was collected into serum separator tubes for clinical chemistry analysis. Approximately 200 uL of plasma was obtained and frozen at […] for test compound/metabolite estimation. An additional ˜2 mL of blood was collected into a 15 mL conical polypropylene vial to which ˜3 mL of Trizol was immediately added. The contents were immediately mixed with a vortex and by repeated inversion. The tubes were frozen in liquid nitrogen and stored at […]
# [19] = tested on: rat hepatocytes; settings: cited from earlier work
# [20] = tested on: mouse; settings: in vivo; cited from earlier work
# [21] = tested on: rats; settings: cited from earlier work
# [22] = tested on: renal GST-alpha subunit, cytochrome P4502E1; settings: rat, in vivo; cited from earlier work
# [23] = tested on: patients; settings: human, in vivo; cited from earlier work; remark: listed apart in the source
# [24] = tested on: rats; settings: rat, in vivo; cited from earlier work; remark: listed apart in the source
# [25] = tested on: mouse; settings: in vivo; cited from earlier work; remark: listed apart in the source
# [26] = tested on: rats and mice; settings: in vivo; cited from earlier work
# [27] = tested on: patients; settings: 90 mg per month; cited from earlier work
# [28] = tested on: rats; settings: rat, in vivo; cited from earlier work; remark: listed apart in the source
# [29] = tested on: rats; settings: rat, in vivo; cited from earlier work; remark: listed apart in the source
# [30] = tested on: rats; settings: rat, in vivo; cited from earlier work; remark: listed apart in the source
# [31] = in vivo; cited from earlier work
compound,measurement,setting,value
CC(C)(Oc1ccc(C2CC2(Cl)Cl)cc1)C(=O)O (centres unmarked) [Ciprofibrate],plasma creatinine and urea levels,[1],elevated
O=C(O)c1cc(/N=N/c2ccc(O)c(C(=O)O)c2)ccc1O [Olsalazine],kidney findings,[2],interstitial nephritis and tubular necrosis
"CN(C)c1ncnc2c1ncn2[C@@H]1O[C@H](CO)[C@@H](N)[C@H]1O [PAN, Puromycin aminonucleoside]",serum albumin concentration,[3],negatively affected
same,serum non-esterified fatty acids,[3],increase
same,urine protein and renal damage,[4],proteinuria
same,glomerular epithelial cell apoptosis,[5],induced
CC1CCC(NC(=O)N(CCCl)N=O)CC1 (centres unmarked) [Semustine],renal injury,[6],proximal tubule injury and papillary necrosis
"ClC(Cl)(Cl)Cl [carbon tetrachloride, Carbon tetrachloride]",glutathione peroxidase activity,[7],significant decrease
same,kidney superoxide dismutase and catalase activities,[7],Significant increases
"O=C(Cc1cccs1)N[C@@H]1C(=O)N2C(C(=O)[O-])=C(C[n+]3ccccc3)CS[C@H]12 [cephaloridine, Cephaloridine]",mitochondrial respiration and uptake of anionic succinate,[8],reduce
same,glutathione reductase,[9],inhibited
same,reduced glutathione (GSH) in the renal cortex,[9],depleted
"Nc1ccn(C[C@@H](CO)OCP(=O)(O)O)c(=O)n1 [cidofovir, Cidofovir]",patients with dose-dependent asymptomatic proteinuria,[10],Approximately 40%
same,patients with elevated serum creatinine levels,[10],25%
"N.N.[Cl][Pt][Cl] [cisplatin, Cisplatin (Pt (NH3)2(Cl)2)]",renal injury,[11],induced renal injury
same,food intake,[12],decreased
same,urine osmolality,[12],decreased
same,urine volume,[12],increase
same,serum creatinine levels,[13],elevations
"CC1=C2C(=CO[C@H](C)[C@H]2C)C(O)=C(C(=O)O)C1=O [citrinin, Citrinin]",renal ultrastructure,[14],renal alterations
same,blood urea nitrogen and serum-creatinine levels,[15],increased
same,clinical findings,[15],azotaemia and metabolic acidosis
same,creatinine clearance,[15],decreased
"O=C(O)Cc1ccccc1Nc1c(Cl)cccc1Cl [diclofenac, Diclofenac]","Tox Group Mean, GLGC Identifier 67",[16],1551.30
same,"Tox Group Mean, GLGC Identifier 665",[16],849.30
same,"Tox Group Mean, GLGC Identifier 725",[16],33.60
same,"Tox Group Mean, GLGC Identifier 1422",[16],174.39
same,"Tox Group Mean, GLGC Identifier 1527",[16],51.23
same,"Tox Group Mean, GLGC Identifier 1529",[16],194.31
same,"Tox Group Mean, GLGC Identifier 1698",[16],190.91
same,"Tox Group Mean, GLGC Identifier 1729",[16],81.89
same,"Tox Group Mean, GLGC Identifier 1847",[16],22.26
same,"Tox Group Mean, GLGC Identifier 1858",[16],253.42
same,"Tox Group Mean, GLGC Identifier 1888",[16],101.45
same,"Tox Group Mean, GLGC Identifier 1894",[16],294.35
same,"Tox Group Mean, GLGC Identifier 2128",[16],97.35
same,"Tox Group Mean, GLGC Identifier 3172",[16],36.28
same,"Tox Group Mean, GLGC Identifier 3439",[16],135.79
same,"Tox Group Mean, GLGC Identifier 3465",[16],152.39
same,"Tox Group Mean, GLGC Identifier 4449",[16],156.15
same,"Tox Group Mean, GLGC Identifier 4661",[16],555.94
same,"Tox Group Mean, GLGC Identifier 5461",[16],694.84
same,"Tox Group Mean, GLGC Identifier 5920",[16],1412.80
same,"Tox Group Mean, GLGC Identifier 5930",[16],73.85
same,"Tox Group Mean, GLGC Identifier 6014",[16],183.73
same,"Tox Group Mean, GLGC Identifier 6046",[16],83.37
same,"Tox Group Mean, GLGC Identifier 6278",[16],58.48
same,"Tox Group Mean, GLGC Identifier 6758",[16],59.84
same,"Tox Group Mean, GLGC Identifier 6782",[16],310.65
same,"Tox Group Mean, GLGC Identifier 6796",[16],304.75
same,"Tox Group Mean, GLGC Identifier 6917",[16],111.53
same,"Tox Group Mean, GLGC Identifier 7299",[16],595.57
same,"Tox Group Mean, GLGC Identifier 7540",[16],504.78
same,"Tox Group Mean, GLGC Identifier 7872",[16],63.92
same,"Tox Group Mean, GLGC Identifier 7936",[16],82.66
same,"Tox Group Mean, GLGC Identifier 7937",[16],34.46
same,"Tox Group Mean, GLGC Identifier 8065",[16],236.57
same,"Tox Group Mean, GLGC Identifier 8099",[16],72.23
same,"Tox Group Mean, GLGC Identifier 8104",[16],85.37
same,"Tox Group Mean, GLGC Identifier 8234",[16],22.24
same,"Tox Group Mean, GLGC Identifier 8759",[16],237.31
same,"Tox Group Mean, GLGC Identifier 8820",[16],743.55
same,"Tox Group Mean, GLGC Identifier 8850",[16],175.34
same,"Tox Group Mean, GLGC Identifier 8888",[16],22.26
same,"Tox Group Mean, GLGC Identifier 9079",[16],1099.28
same,"Tox Group Mean, GLGC Identifier 9520",[16],69.60
same,"Tox Group Mean, GLGC Identifier 10434",[16],77.07
same,"Tox Group Mean, GLGC Identifier 11434",[16],181.39
same,"Tox Group Mean, GLGC Identifier 11755",[16],343.83
same,"Tox Group Mean, GLGC Identifier 12979",[16],742.50
same,"Tox Group Mean, GLGC Identifier 13013",[16],32.49
same,"Tox Group Mean, GLGC Identifier 13485",[16],38.32
same,"Tox Group Mean, GLGC Identifier 13542",[16],321.75
same,"Tox Group Mean, GLGC Identifier 13614",[16],497.29
same,"Tox Group Mean, GLGC Identifier 13966",[16],227.19
same,"Tox Group Mean, GLGC Identifier 14003",[16],1575.92
same,"Tox Group Mean, GLGC Identifier 14346",[16],174.62
same,"Tox Group Mean, GLGC Identifier 14450",[16],45.80
same,"Tox Group Mean, GLGC Identifier 15017",[16],2241.27
same,"Tox Group Mean, GLGC Identifier 15035",[16],23.84
same,"Tox Group Mean, GLGC Identifier 15124",[16],1897.22
same,"Tox Group Mean, GLGC Identifier 15125",[16],3102.06
same,"Tox Group Mean, GLGC Identifier 15379",[16],33.32
same,"Tox Group Mean, GLGC Identifier 15411",[16],552.53
same,"Tox Group Mean, GLGC Identifier 15679",[16],309.12
same,"Tox Group Mean, GLGC Identifier 15761",[16],22.22
same,"Tox Group Mean, GLGC Identifier 15964",[16],487.88
same,"Tox Group Mean, GLGC Identifier 16520",[16],174.46
same,"Tox Group Mean, GLGC Identifier 16521",[16],453.74
same,"Tox Group Mean, GLGC Identifier 16681",[16],134.46
same,"Tox Group Mean, GLGC Identifier 16982",[16],1036.49
same,"Tox Group Mean, GLGC Identifier 17541",[16],1839.84
same,"Tox Group Mean, GLGC Identifier 18246",[16],100.99
same,"Tox Group Mean, GLGC Identifier 19067",[16],76.83
same,"Tox Group Mean, GLGC Identifier 20000",[16],24.08
same,"Tox Group Mean, GLGC Identifier 20457",[16],235.87
same,"Tox Group Mean, GLGC Identifier 20523",[16],1004.68
same,"Tox Group Mean, GLGC Identifier 20864",[16],3112.64
same,"Tox Group Mean, GLGC Identifier 21012",[16],445.05
same,"Tox Group Mean, GLGC Identifier 21014",[16],352.43
same,"Tox Group Mean, GLGC Identifier 21145",[16],76.23
same,"Tox Group Mean, GLGC Identifier 21354",[16],640.85
same,"Tox Group Mean, GLGC Identifier 21491",[16],67.51
same,"Tox Group Mean, GLGC Identifier 22311",[16],1255.02
same,"Tox Group Mean, GLGC Identifier 22321",[16],138.89
same,"Tox Group Mean, GLGC Identifier 23987",[16],596.80
same,"Tox Group Mean, GLGC Identifier 24232",[16],48.69
same,"Tox Group Mean, GLGC Identifier 24566",[16],32.95
same,"Tox Group Mean, GLGC Identifier 24568",[16],78.30
same,"Tox Group Mean, GLGC Identifier 24893",[16],20.58
same,"Tox Group Mean, GLGC Identifier 25106",[16],28.05
same,"Tox Group Mean, GLGC Identifier 26083",[16],403.60
same,"levels of BUN, malondialdehyde (MDA), SOD, and activated Ca2+-Mg2+-endonuclease",[17],elevated
"O=C(O)c1cc(-c2ccc(F)cc2F)ccc1O [diflunisal, Diflunisal]",concentrations of creatinine,[18],increased
same,LDH leakage,"[19]; 500 μM, compared to the control sample",increase
same,intracellular ATP concentrations,[19],decreased
"NNc1nncc2ccccc12 [hydralazine, Hydralazine]",kidney copper concentrations,[21]; compared to control groups,increased
same,manganese and zinc concentrations,"[21]; rat, in vivo",not effected
same,renal GST-alpha subunit expression,[22],increase
same,renal cytochrome P4502E1 expression,[22],did not alter
"O=P1(NCCCl)OCCCN1CCCl (centres unmarked) [ifosfamide, Ifosfamide]",patients who developed nephrotoxicity,[23],seven
same,body weight and hematocrit versus control rats,[24],significantly lower
same,clearance rate of creatinine,[25],decreased
same,serum creatinine and urea levels,[25],elevated
"NCCC(O)(P(=O)(O)O)P(=O)(O)O [pamidronate, Pamidronate]",body weight,[26],significant weight loss
same,creatinine clearance,[26],decrease
same,renal toxicity at the recommended dose,[27],rare
"N=C(N)c1ccc(OCCCCCOc2ccc(C(=N)N)cc2)cc1 [pentamidine, Pentamidine]",tubular toxicity,[28],dose-related and reversible
"CC(=N)S [thioacetamide, Thioacetamide]","serum total bilirubin, aspartate aminotransferase, alanine aminotransferase, BUN, creatinine and TNFα",[29],elevated
Carboplatin,renal damage compared with cisplatin,[11],less damage than cisplatin
same,renal injury,[11],induced renal injury
same,CGT excretion,[30],increased approximately two-fold
gentamicin,gamma-glutamyl transpeptidase activity in urine,[31],increase
